Source: patent US12697336B2, “RUC-4 formulations” (CeleCor Therapeutics, Inc., priority 2021, dated 2026)

Legend:
[1] = Example 1 formulation stability test: overnight (~18 hours) storage at −20° C., 5° C. and 20° C., visual observation; format: physicochemical; conditions: pH 4.75
Protocol: Formulation solutions as described in Table 3 below were prepared and divided in to three equal portions that were stored overnight (~18 hours) at −20° C., 5° C. and 20° C., respectively. The formulations were observed, and the characteristics reported in Table 3 were noted, immediately for RT, immediately upon removing 5° C. formulations from refrigerator, and upon thawing of −20° C. formulations. Clear solutions of Compound (1) were obtained at pH 4.75 at concentrations of ≤17.5 mg/mL.

[2] = Solubility of Compound (1) in acetic acid; format: physicochemical; conditions: organic solvent or mixture, read-out: Solubility in acetic acid (obtainable solution concentration)
Protocol: In particular, solutions of greater than 300 mg/mL are obtainable.

## NCC(=O)Nc1cncc(-c2nn3c(=O)cc(N4CCNCC4)nc3s2)c1 [Compound (1)]
[1]
  Concentration at which clear solutions were obtained: ≤ 17500 µg/mL
[2]
  solubility: > 300 mg/mL
